{"source": "PubChem BioAssay (NCI)", "test_in_all_cases": "NCI tumour cell line growth inhibition, 48 h", "key": {"[1]": {"test_system": "RPMI-8226 leukemia"}, "[2]": {"test_system": "MOLT-4 leukemia"}, "[3]": {"test_system": "DMS 273 small cell lung"}, "[4]": {"test_system": "XF 498 CNS"}, "[5]": {"test_system": "NCI-H23 lung"}, "[6]": {"test_system": "SF-295 CNS"}, "[7]": {"test_system": "UACC-62 melanoma"}, "[8]": {"test_system": "NCI/ADR-RES ovarian"}, "[9]": {"test_system": "LOX IMVI melanoma"}, "[10]": {"test_system": "SNB-19 CNS"}, "[11]": {"test_system": "HT29 colon"}, "[12]": {"test_system": "DMS 114 small cell lung"}, "[13]": {"test_system": "SW-620 colon"}, "[14]": {"test_system": "HL-60(TB) leukemia"}, "[15]": {"test_system": "SN12K1 renal"}, "[16]": {"test_system": "P388 leukemia"}, "[17]": {"test_system": "A549 NSCLC"}, "[18]": {"test_system": "KM12 colon"}, "[19]": {"test_system": "COLO 205 colon"}, "[20]": {"test_system": "HCT-15 colon"}, "[21]": {"test_system": "NCI-H226 lung"}, "[22]": {"test_system": "EKVX NSCLC"}, "[23]": {"test_system": "SNB-78 CNS"}, "[24]": {"test_system": "DLD-1 colon"}, "[25]": {"test_system": "UO-31 renal"}, "[26]": {"test_system": "KM20L2 colon"}, "[27]": {"test_system": "SK-MEL-28 melanoma"}, "[28]": {"test_system": "NCI-H522 lung"}, "[29]": {"test_system": "OVCAR-3 ovarian"}, "[30]": {"test_system": "HCT-116 colon"}, "[31]": {"test_system": "MCF7 breast"}, "[32]": {"test_system": "M19-MEL melanoma"}, "[33]": {"test_system": "UACC-257 melanoma"}, "[34]": {"test_system": "HOP-62 NSCLC"}, "[35]": {"test_system": "SN12C renal"}, "[36]": {"test_system": "RXF 393 renal"}, "[37]": {"test_system": "OVCAR-8 ovarian"}, "[38]": {"test_system": "U251 CNS"}, "[39]": {"test_system": "A498 renal"}, "[40]": {"test_system": "OVCAR-4 ovarian"}, "[41]": {"test_system": "SK-OV-3 ovarian"}, "[42]": {"test_system": "SK-MEL-2 melanoma"}, "[43]": {"test_system": "K-562 leukemia"}, "[44]": {"test_system": "CCRF-CEM leukemia"}, "[45]": {"test_system": "OVCAR-5 ovarian"}, "[46]": {"test_system": "MALME-3M melanoma"}, "[47]": {"test_system": "SK-MEL-5 melanoma"}, "[48]": {"test_system": "HCC-2998 colon"}, "[49]": {"test_system": "SF-539 CNS"}, "[50]": {"test_system": "CAKI-1 renal"}, "[51]": {"test_system": "SNB-75 CNS"}, "[52]": {"test_system": "NCI-H460 lung"}, "[53]": {"test_system": "IGROV1 ovarian"}, "[54]": {"test_system": "HOP-18 NSCLC"}, "[55]": {"test_system": "HOP-92 NSCLC"}, "[56]": {"test_system": "SF-268 CNS"}}, "note": "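Step 1: Grow cells in 96-well plates. Step 2: Expose to compound for 48 hours at 5 concentrations. Step 3: Interpolate endpoints linearly; if unreached, use highest concentration. TGI is the concentration that stops growth completely.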"}
{"smiles": "CC(=O)OC1C=C(C=O)C(O)(C=O)C2(C)CCCC(C)(C)C12", "note": "(stereo unspecified)", "values": [{"measurement": "TGI", "setting": "[1]", "result": 1.5, "unit": "µM"}, {"measurement": "TGI", "setting": "[2]", "result": 0.629, "unit": "µM"}, {"measurement": "TGI", "setting": "[3]", "result": 8.42, "unit": "µM"}, {"measurement": "TGI", "setting": "[4]", "result": 4.3, "unit": "µM"}, {"measurement": "TGI", "setting": "[5]", "result": 4.92, "unit": "µM"}, {"measurement": "TGI", "setting": "[6]", "result": 6.31, "unit": "µM"}, {"measurement": "TGI", "setting": "[7]", "result": 6.1, "unit": "µM"}, {"measurement": "TGI", "setting": "[8]", "result": 5.57, "unit": "µM"}, {"measurement": "TGI", "setting": "[9]", "result": 2.93, "unit": "µM"}, {"measurement": "TGI", "setting": "[10]", "result": 12, "unit": "µM"}, {"measurement": "TGI", "setting": "[11]", "result": 3.65, "unit": "µM"}, {"measurement": "TGI", "setting": "[12]", "result": 2.24, "unit": "µM"}, {"measurement": "TGI", "setting": "[13]", "result": 0.953, "unit": "µM"}, {"measurement": "TGI", "setting": "[14]", "result": 0.895, "unit": "µM"}, {"measurement": "TGI", "setting": "[15]", "result": 3.85, "unit": "µM"}, {"measurement": "TGI", "setting": "[16]", "result": 0.525, "unit": "µM"}, {"measurement": "TGI", "setting": "[17]", "result": 13.6, "unit": "µM"}, {"measurement": "TGI", "setting": "[18]", "result": 5.14, "unit": "µM"}, {"measurement": "TGI", "setting": "[19]", "result": 2.75, "unit": "µM"}, {"measurement": "TGI", "setting": "[20]", "result": 1.7, "unit": "µM"}, {"measurement": "TGI", "setting": "[21]", "result": 4.62, "unit": "µM"}, {"measurement": "TGI", "setting": "[22]", "result": 6.13, "unit": "µM"}, {"measurement": "TGI", "setting": "[23]", "result": 5.44, "unit": "µM"}, {"measurement": "TGI", "setting": "[24]", "result": 3.77, "unit": "µM"}, {"measurement": "TGI", "setting": "[25]", "result": 5.66, "unit": "µM"}, {"measurement": "TGI", "setting": "[26]", "result": 5.11, "unit": "µM"}, {"measurement": "TGI", "setting": "[27]", "result": 3.42, "unit": "µM"}, {"measurement": "TGI", "setting": "[28]", "result": 1.16, "unit": "µM"}, {"measurement": "TGI", "setting": "[29]", "result": 2.15, "unit": "µM"}, {"measurement": "TGI", "setting": "[30]", "result": 3.92, "unit": "µM"}, {"measurement": "TGI", "setting": "[31]", "result": 5.49, "unit": "µM"}, {"measurement": "TGI", "setting": "[32]", "result": 3.36, "unit": "µM"}, {"measurement": "TGI", "setting": "[33]", "result": 5.68, "unit": "µM"}, {"measurement": "TGI", "setting": "[34]", "result": 14.6, "unit": "µM"}, {"measurement": "TGI", "setting": "[35]", "result": 5.97, "unit": "µM"}, {"measurement": "TGI", "setting": "[36]", "result": 1.01, "unit": "µM"}, {"measurement": "TGI", "setting": "[37]", "result": 4.6, "unit": "µM"}, {"measurement": "TGI", "setting": "[38]", "result": 7.39, "unit": "µM"}, {"measurement": "TGI", "setting": "[39]", "result": 2.31, "unit": "µM"}, {"measurement": "TGI", "setting": "[40]", "result": 4.01, "unit": "µM"}, {"measurement": "TGI", "setting": "[41]", "result": 8.68, "unit": "µM"}, {"measurement": "TGI", "setting": "[42]", "result": 6.81, "unit": "µM"}, {"measurement": "TGI", "setting": "[43]", "result": 1.73, "unit": "µM"}, {"measurement": "TGI", "setting": "[44]", "result": 0.706, "unit": "µM"}, {"measurement": "TGI", "setting": "[45]", "result": 8.16, "unit": "µM"}, {"measurement": "TGI", "setting": "[46]", "result": 2.33, "unit": "µM"}, {"measurement": "TGI", "setting": "[47]", "result": 2.2, "unit": "µM"}, {"measurement": "TGI", "setting": "[48]", "result": 5.75, "unit": "µM"}, {"measurement": "TGI", "setting": "[49]", "result": 5.74, "unit": "µM"}, {"measurement": "TGI", "setting": "[50]", "result": 3.15, "unit": "µM"}, {"measurement": "TGI", "setting": "[51]", "result": 5.82, "unit": "µM"}, {"measurement": "TGI", "setting": "[52]", "result": 4.21, "unit": "µM"}, {"measurement": "TGI", "setting": "[53]", "result": 6.05, "unit": "µM"}, {"measurement": "TGI", "setting": "[54]", "result": 1.58, "unit": "µM"}, {"measurement": "TGI", "setting": "[55]", "result": 2.98, "unit": "µM"}, {"measurement": "TGI", "setting": "[56]", "result": 5.35, "unit": "µM"}]}
